Common to all, as to type: functional
The subject of assay [1] is MDA-MB-231. The experiment in a line: Cytotoxicity against Homo sapiens (human) MDA-MB-231 after 48 hr by Alamar Blue assay. The conditions noted are these: MDA-MB-231, 48 h. For orientation: Resazurin is reduced to fluorescent resorufin, in cell work by metabolically active cells.
In assay [2] the test system is SK-MEL-5. Description: Cytotoxicity against Homo sapiens (human) SK-MEL-5 after 48 hr by Alamar Blue assay. The conditions noted are these: SK-MEL-5, 48 h.
In assay [3] the test system is NCI-H522. Description: Cytotoxicity against Homo sapiens (human) NCI-H522 after 48 hr by Alamar Blue assay. The conditions noted are these: NCI-H522, 48 h.
Assay [4] concerns IGROV-1. The experiment in a line: Cytotoxicity against Homo sapiens (human) IGROV1 after 48 hr by Alamar Blue assay. Particulars: IGROV-1, 48 h.
For assay [5], the system named is HCT-116. The experiment in a line: Cytotoxicity against Homo sapiens (human) HCT116 after 48 hr by Alamar Blue assay. The conditions noted are these: HCT-116, 48 h.
In assay [6] the test system is A498. The experiment in a line: Cytotoxicity against Homo sapiens (human) A498 after 48 hr by Alamar Blue assay. The conditions noted are these: A498, 48 h.
The subject of assay [7] is SF-539. Description: Cytotoxicity against Homo sapiens (human) SF539 after 48 hr by Alamar Blue assay. The conditions noted are these: SF-539, 48 h.
For assay [8], the system named is KM12. The experiment in a line: Cytotoxicity against Homo sapiens (human) KM12 after 48 hr by Alamar Blue assay. The conditions noted are these: KM12, 48 h.
In assay [9] the test system is SW-620. The experiment in a line: Cytotoxicity against Homo sapiens (human) SW620 after 48 hr by Alamar Blue assay. Particulars: SW-620, 48 h.
Assay [10] deals with PC-3. Description: Cytotoxicity against Homo sapiens (human) PC3 after 48 hr by Alamar Blue assay. The conditions noted are these: PC-3, 48 h.
The test system of assay [11] is MCF7. The experiment in a line: Cytotoxicity against Homo sapiens (human) MCF7 assessed as cell growth at 10^-4 M after 48 hr by Alamar Blue assay. The conditions noted are these: MCF7, 48 h, read-out: Activity.
Assay [12] relates to BT-549. The experiment in a line: Cytotoxicity against Homo sapiens (human) BT549 after 48 hr by Alamar Blue assay. Particulars: BT-549, 48 h.

Structures are written as SMILES. Bounds are passed on as bounds.

For orientation: GI50 means the concentration that inhibits growth by half. Turning to `Cc1ccc(C2=C3SC=c4ccccc4=C3ON=C2c2ccc(Cl)cc2)cc1`, the GI50 in assay [1] is greater than 100 µM; in [2], 53.1 µM; in assay [3], 15.1 µM; in [4], greater than 10 µM; in [5] it was 62.7 µM; in [6], greater than 100 µM. Besides, the GI50 in [7] was greater than 100 µM; in assay [8], greater than 100 µM; in assay [9], 55.6 µM; in assay [10], 21.6 µM; in assay [12], 41.2 µM. Further, the growth at 100 µM in assay [11] is 2%.

As for `Cc1ccc(C2=NOC3=c4ccccc4=CSC3=C2c2ccc(C)cc2)cc1`, the GI50 in assay [1] is greater than 100 µM; in [2] it was greater than 100 µM; in assay [3] it was 53.8 µM; in [4] it was greater than 100 µM; in [5], 57.5 µM; in assay [6], greater than 100 µM. The GI50 in assay [7], in assay [8], in assay [9], in assay [10] and in assay [12] was greater than 100 µM throughout. For the same molecule, the growth at 100 µM in [11] came to 36%.
